The values that follow are results of earlier work, collected in patent publication US20220133758A1, “TREATMENT OF INFLAMMATORY BOWEL DISEASES WITH 2'-FUCOSYLLACTOSE COMPOUNDS” (CHILDREN'S HOSPITAL MEDICAL CENTER, priority 2017, published 2022).

The conditions of data set [1]: infliximab or adalimumab anti-TNF therapy, despite optimal therapeutic drug monitoring and dosing.
Data set [2] has as its system EC genes regulating butyrate transport, signaling, and mitochondrial oxidation. The settings on record: IBD patients who experience mucosal healing.

Take adalimumab: in data set [1], the patients relapsed is recorded as 37%.
Turning to “infliximab: monoclonal anti-TNF antibody”, the Bifidobacterium abundance result with fecal Bifidobacterium (pediatric CD study) is “not associated with increased Bifidobacterium abundance”. Further, the correction of dysbiosis result in the data set on fecal Bifidobacterium (suppression of mucosal inflammation) is reported as “only partially corrects”. In addition, in data set [2], the “inflammatory suppression of EC genes regulating butyrate transport, signaling, and mitochondrial oxidation” value was “largely corrected”. The patients relapsed in data set [1] was 37%.
